# Measured values: PubChem BioAssay AID623935 (Southern Research Specialized Biocontainment Screening …, 2012)
# Activity calls are given as the source filed them. No rule for the calls is given here.
# System: Chikungunya virus infected cells, antiviral inhibition
# Test: Chikungunya virus antiviral inhibition, dose response, cell-based, secondary assay (AID 623935)
row,SMILES,IC50
1,CCN1CCN(Cc2nc3ccc([N+](=O)[O-])cc3c(=O)n2-c2ccccc2F)CC1,> 100 µM (inactive)
2,CN(C(=O)Cc1cccs1)c1nc2c(s1)CCCC2,3.16 µM
